Source: the supplement of paper PMC10307832

Tests used:
Assay in all cases: relative viability (nuclei count vs DMSO), 5 days (fraction); higher = more cells survive
Kobe2602 + Navitoclax = compound: C1=CC(=CC=C1NC(=S)NNC2=C(C=C(C=C2[N+](=O)[O-])C(F)(F)F)[N+](=O)[O-])F [Kobe2602] + CC1(C)CCC(c2ccc(Cl)cc2)=C(CN2CCN(c3ccc(C(=O)NS(=O)(=O)c4ccc(N[C@H](CCN5CCOCC5)CSc5ccccc5)c(S(=O)(=O)C(F)(F)F)c4)cc3)CC2)C1 [Navitoclax] (partner 0.5 µM)
Summary of the method: (§1)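 After 5 days of treatment, lung cancer cells in 1536-well plates were fixed and stained in a single step (final 0.05% Triton X-100, 1% formaldehyde, 1 ug/ml Hoechst) and their nuclei counted on 4× images. Treatment had been applied by pin tool the day after seeding as one drug alone or as a fixed anchor-drug dose with five library-drug doses (not always all listed) in √10 steps. Relative viability is the nuclei count of treated wells divided by that of vehicle wells, and values are medians of duplicate plates.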

[1] = compound: COc1cc2nccc(Oc3ccc(NC(=O)C4(C(=O)Nc5ccc(F)cc5)CC4)cc3)c2cc1OC [Cabozantinib] + CCNC(=O)c1noc(-c2cc(C(C)C)c(O)cc2O)c1-c1ccc(CN2CCOCC2)cc1 [Luminespib] (partner 0.01 µM)
Summary of the method: as §1

[2] = compound: COc1cc2nccc(Oc3ccc(NC(=O)C4(C(=O)Nc5ccc(F)cc5)CC4)cc3)c2cc1OC [Cabozantinib] + CS(=O)(=O)N1CCN(Cc2cc3nc(-c4cccc5[nH]ncc45)nc(N4CCOCC4)c3s2)CC1 [Pictilisib] (partner 1 µM)
Summary of the method: as §1

| Cell Line | relative viability (Kobe2602 + Navitoclax; first compound 0.2 µM) | relative viability (Kobe2602 + Navitoclax; first compound 0.6325 µM) | relative viability (Kobe2602 + Navitoclax; first compound 2 µM) | relative viability (Kobe2602 + Navitoclax; first compound 6.325 µM) | relative viability (Kobe2602 + Navitoclax; first compound 20 µM) | relative viability ([1]; first compound 0.02 µM) | relative viability ([1]; first compound 0.06325 µM) | relative viability ([1]; first compound 0.2 µM) | relative viability ([1]; first compound 0.6325 µM) | relative viability ([1]; first compound 2 µM) | relative viability ([2]; first compound 0.02 µM) | relative viability ([2]; first compound 0.06325 µM) | relative viability ([2]; first compound 0.2 µM) | relative viability ([2]; first compound 0.6325 µM) | relative viability ([2]; first compound 2 µM) |
| --- | --- | --- | --- | --- | --- | --- | --- | --- | --- | --- | --- | --- | --- | --- | --- |
| NCI-H520 | 0.99 | 1.08 | 1.03 | 1.07 | 0.988 | 0.257 | 0.198 | 0.249 | 0.237 | 0.189 | 0.318 | 0.291 | 0.28 | 0.312 | 0.376 |
| NCI-H596 | 0.908 | 1.05 | 0.949 | 0.962 | 0.992 | 0.905 | 1.26 | 1.02 | 1.08 | 0.907 | 0.389 | 0.408 | 0.388 | 0.27 | 0.374 |
| NCI-H647 | 1.16 | 1.1 | 1.06 | 1.04 | 1.13 | 0.155 | 0.138 | 0.264 | 0.251 | 0.368 | 0.434 | 0.571 | 0.481 | 0.362 | 0.398 |
| NCI-H727 | 0.392 | 0.431 | 0.356 | 0.389 | 0.456 | 0.285 | 0.453 | 0.643 | 0.362 | 0.312 | 0.228 | 0.493 | 0.302 | 0.357 | 0.36 |
| NCI-H838 | 1.17 | 1.22 | 1.12 | 1.13 | 1.17 | 0.369 | 0.342 | 0.3 | 0.259 | 0.34 | 0.499 | 0.574 | 0.529 | 0.394 | 0.417 |
| NCI-H1355 | 0.887 | 0.94 | 0.945 | 0.901 | 0.902 | 0.806 | 0.852 | 0.682 | 0.738 | 0.871 | 0.49 | 0.442 | 0.453 | 0.432 | 0.526 |
| NCI-H1395 | 1.07 | 1.09 | 1.12 | 1.11 | 1.33 | 0.744 | 0.978 | 0.873 | 0.619 | 0.547 | 0.657 | 0.644 | 0.609 | 0.675 | 0.689 |
| NCI-H1437 | 1.04 | 1.07 | 1.11 | 1.11 | 0.901 | 1.14 | 1.14 | 1.13 | 1.09 | 1 | 0.382 | 0.474 | 0.486 | 0.471 | 0.429 |
| NCI-H1650 | 1.08 | 1.33 | 0.948 | 1.36 | 1.22 | 0.187 | 0.202 | 0.185 | 0.185 | 0.169 | 0.515 | 0.709 | 0.606 | 0.536 | 0.532 |
| NCI-H1651 | 1.11 | 1.08 | 1.18 | 1.03 | 1.02 | 0.881 | 0.879 | 0.908 | 0.733 | 0.946 | 0.548 | 0.62 | 0.513 | 0.547 | 0.468 |
| NCI-H1666 | 1.02 | 0.982 | – | 0.77 | 0.924 | 0.968 | 1 | 1.02 | 1.04 | 1.06 | 0.404 | 0.4 | 0.396 | 0.503 | 0.439 |
| NCI-H1734 | 0.899 | 0.924 | 0.842 | 0.837 | 0.926 | 0.186 | 0.206 | 0.22 | 0.203 | 0.186 | 0.417 | 0.414 | 0.472 | 0.453 | 0.434 |
| NCI-H1755 | 0.999 | 0.995 | 0.969 | 0.96 | 0.926 | 0.33 | 0.419 | 0.54 | 0.344 | 0.403 | 0.445 | 0.534 | 0.383 | 0.358 | 0.309 |
| NCI-H1792 | 0.67 | 0.626 | 0.604 | 0.609 | 0.695 | – | 0.404 | 0.501 | 0.334 | 0.325 | 0.334 | 0.318 | 0.301 | 0.293 | 0.268 |
| NCI-H1793 | 0.528 | 0.445 | 0.415 | 0.413 | 0.459 | 0.591 | 0.168 | 0.144 | 0.202 | 0.155 | 0.416 | 0.325 | 0.296 | 0.27 | 0.293 |
| NCI-H1915 | 0.796 | 0.827 | 0.797 | 0.791 | 0.795 | 0.915 | 0.978 | 0.779 | 0.871 | 0.776 | 0.929 | 1.04 | 0.903 | 0.949 | 0.908 |
| NCI-H1944 | 1.02 | 1.04 | 1.09 | 1.08 | 1.13 | 0.739 | 0.818 | 0.754 | 0.719 | 0.762 | – | 0.367 | 0.369 | 0.34 | 0.342 |
| NCI-H1975 | 1.08 | 0.955 | 0.968 | 1.1 | 0.928 | 0.221 | 0.258 | 0.233 | 0.219 | 0.212 | 0.28 | 0.322 | 0.297 | 0.303 | 0.337 |

| Cell Line | relative viability (Kobe2602 + Navitoclax; first compound 0.2 µM) | relative viability (Kobe2602 + Navitoclax; first compound 0.6325 µM) | relative viability (Kobe2602 + Navitoclax; first compound 2 µM) | relative viability (Kobe2602 + Navitoclax; first compound 6.325 µM) | relative viability (Kobe2602 + Navitoclax; first compound 20 µM) | relative viability ([1]; first compound 0.02 µM) | relative viability ([1]; first compound 0.06325 µM) | relative viability ([1]; first compound 0.2 µM) | relative viability ([1]; first compound 0.6325 µM) | relative viability ([1]; first compound 2 µM) | relative viability ([2]; first compound 0.02 µM) | relative viability ([2]; first compound 0.06325 µM) | relative viability ([2]; first compound 0.2 µM) | relative viability ([2]; first compound 0.6325 µM) | relative viability ([2]; first compound 2 µM) |
| --- | --- | --- | --- | --- | --- | --- | --- | --- | --- | --- | --- | --- | --- | --- | --- |
| NCI-H1993 | 0.678 | 0.707 | 0.787 | 0.687 | 0.729 | 0.787 | 0.738 | 0.667 | 0.828 | 0.73 | 0.842 | 0.804 | 0.987 | 0.811 | 0.878 |
| NCI-H2009 | 1.19 | 1.25 | 1.14 | 1.19 | 1.14 | 1.13 | 1.1 | 1 | 1.1 | 1.14 | 0.979 | 0.882 | 0.882 | 0.754 | 0.959 |
| NCI-H2023 | 0.976 | 1.11 | 0.892 | 0.927 | 0.917 | 0.839 | 0.68 | 0.635 | 0.641 | 0.539 | 0.189 | 0.228 | 0.22 | 0.206 | 0.2 |
| NCI-H2085 | 1.2 | 1.16 | 1.08 | 1.23 | 1.14 | 0.472 | 0.498 | 0.464 | 0.467 | 0.432 | 0.468 | 0.456 | 0.443 | 0.465 | 0.344 |
| NCI-H2087 | 0.959 | 0.934 | 1.01 | 1.03 | 0.849 | 0.163 | 0.185 | 0.193 | 0.168 | 0.158 | 1.01 | 0.976 | 0.906 | 1.01 | 0.854 |
| NCI-H2126 | 0.883 | 0.888 | 0.799 | 0.776 | 0.788 | 0.871 | 0.973 | 0.969 | 0.89 | 1.1 | 0.442 | 0.52 | 0.465 | 0.544 | 0.547 |
| NCI-H2170 | 0.65 | 0.597 | 0.56 | 0.57 | 0.622 | 0.729 | 0.952 | 0.587 | 0.857 | 0.849 | 0.259 | 0.321 | 0.274 | 0.376 | 0.296 |
| NCI-H2228 | 1.08 | 0.621 | 0.69 | 0.743 | 0.841 | 0.162 | 0.167 | 0.175 | 0.122 | 0.134 | 0.539 | 0.544 | 0.551 | 0.455 | 0.331 |
| NCI-H2347 | 0.697 | 0.82 | 0.753 | 0.789 | 0.807 | 0.411 | 0.661 | 0.778 | – | 0.515 | 0.893 | 0.726 | 0.897 | 0.497 | 0.592 |
| NCI-H2405 | 0.82 | 0.847 | 0.783 | 1.06 | 0.987 | 0.615 | 0.83 | 0.648 | 0.629 | 0.588 | – | 0.496 | 0.602 | 0.422 | 0.439 |
| NCI-H3122 | 1.05 | 0.971 | 1.02 | 1.02 | 1.03 | 0.111 | 0.102 | 0.0937 | 0.0876 | 0.101 | 0.512 | 0.622 | 0.579 | 0.77 | 0.769 |
| PC-3 [JPC-3] | 0.833 | 0.775 | 0.76 | 0.847 | 0.717 | 0.857 | 0.803 | – | 0.825 | 0.777 | 0.723 | 0.926 | – | 0.806 | 0.774 |
| PC-14 | 0.978 | 1.04 | 0.982 | 1.03 | 0.971 | 0.198 | 0.139 | – | 0.237 | 0.179 | 0.722 | 0.761 | – | 0.76 | 0.689 |
| RERF-LC-KJ | 0.804 | 0.993 | 0.856 | 0.971 | 0.858 | 1.32 | 1.31 | 1.19 | 1.19 | 1.23 | 0.501 | 0.646 | 0.578 | 0.567 | 0.485 |
| SK-LU-1 | 0.818 | 0.984 | 0.713 | 1.01 | 0.967 | 0.225 | 0.209 | 0.207 | 0.192 | 0.21 | – | 0.857 | 0.519 | 0.481 | 0.529 |
| SK-MES-1 | 1.14 | 1.23 | 1.09 | 1.19 | 1.23 | 0.835 | 1 | 0.9 | 0.875 | 0.729 | 0.357 | 0.391 | 0.335 | 0.386 | 0.322 |
| SW 1573 | 1.05 | 1.14 | 0.96 | 1.02 | 0.946 | 0.22 | 0.223 | 0.221 | 0.151 | 0.122 | 0.483 | 0.573 | 0.543 | 0.411 | 0.449 |
